In brackets after ≈: the same amount, converted by molar mass. Where two headings read alike, the source gives them in different places.
Assays:
[1] = system: methicillin-resistant Staphylococcus aureus ATCC 43300; assay: Antimicrobial assay, micro broth dilution, MRSA; format: cell-based; conditions: ATCC43300, ATCC 43300, micro broth dilution, read-out: MIC, growth of methicillin-resistant S. aureus
Method: (§1) Compounds 1 and 2 were also determined for their activities against methicillin-resistant Staphylococcus aureus ATCC 43300 and Escherichia coli ATCC 25922.
(§2) The micro broth dilution method as described in the previous report was used to determine the antimicrobial activity of the isolated compounds against the methicillin-resistant Staphylococcus aureus ATCC 43300 and Escherichia coli ATCC 25922. Norfloxacin, a broad-spectrum antibiotic against both Gram-positive and Gram-negative bacteria, was used as the positive control.

glioma C6 cells = assay: SRB assay, proliferation of glioma C6 cells; format: cell-based; conditions: Rattus norvegicus, 72 h, read-out: IC50 inhibiting the proliferation of cells, C6
Method: (§3) The compounds 1 and 2 were assayed for their activities inhibiting the proliferation of glioma C6, U251, U87-MG, and SHG-44 cells using the sulforhodamine B (SRB) assay. The SRB assay is a method that measures total cellular protein content for evaluating the activity of tested compounds against the proliferation of tumor cells. Doxorubicin (DOX) was used as a positive control. Glioma cells were treated with tested compounds for 72 h at different concentrations. […] N-acetyl-N-demethylmayamycin (1) and streptoanthraquinone A (2) were also assayed for their activity against normal human astrocytes (HA). The initial assay was conducted on the concentrations from 0.35 to 7.0 μM for 1 and on those from 1.65 to 16.5 μM for 2. The cell viability of HA cells from each tested concentration of both compounds was 100%.
(§4) Human glioma U251 and rat glioma C6 cells were cultured in DMEM (Dulbecco’s Modified Eagle Medium, Gibco, Thermo Fisher Scientific Inc., Waltham, MA, USA) with 10% FBS (Fetal Bovine Serum, PAA Laboratories Inc., Dartmouth, MA, USA), human glioma SHG-44 in RPMI-1640 Medium (Roswell Park Memorial Institution 1640 Medium, Gibco, Thermo Fisher Scientific Inc., Waltham, MA, USA), human glioma U87-MG cells in MEM (Minimum Essential Medium, Gibco), and normal human astrocytes (HA) in AM (Astrocyte Medium, ScienCell, Cat. No. 1801). All cells were incubated at 37 °C in a humidified incubator with 5% CO2. Cells after the third generation were used for experiment.
(§5) The SRB assay was used to evaluate the activity of the isolated compounds in inhibiting the proliferation of glioma U87-MG, U251, SHG-44, and C6 cells. Doxorubicin (DOX) was used as the positive control. Briefly, glioma cells were plated in a 96-well plate and then treated with different concentrations of tested compound after cells adhesion for 24 h. […] After dried, dye was dissolved in a 10 mM Tris buffer and measured at 515 nm on a microplate reader (BioTech, Winooski, VT, USA).

[2] = system: Escherichia coli ATCC 25922; assay: Antimicrobial assay, micro broth dilution, E. coli; format: cell-based; conditions: ATCC 25922, micro broth dilution
Method: as §1, §2

glioma SHG-44 cells = assay: SRB assay, proliferation of glioma SHG-44 cells; format: cell-based; conditions: Homo sapiens, 72 h, read-out: IC50 inhibiting the proliferation of cells, SHG-44
Method: as §3, §4, §5

glioma U251 cells [3] = assay: Apoptosis in glioma U251 cells, flow cytometry with Annexin V-FITC/PI double staining; format: cell-based, human; conditions: 36 h, control 3.58%
Method: N-acetyl-N-demethylmayamycin (1) and streptoanthraquinone A (2) were further tested for their ability to induce apoptosis in glioma U251 cells by flow cytometry using Annexin V-FITC/PI double staining.
Figure 6 N-acetyl-N-demethylmayamycin (1) and streptoanthraquinone A (2) induced apoptosis in the glioma U251 cells quantified by cytometric analysis. U251 cells were treated with 1 (0.7 μM) or 2 (3.3 μM) for 36 h and then stained with Annexin-V FITC and PI double staining (B1: necrotic cells; B2: late apoptotic cells; B3: normal glioma cells; B4: early apoptotic cells). TEXT PRINTED IN THE PICTURE: 1: U251: B1: 2.87% (0.7 μM); U251: B2: 31.39% (0.7 μM); U251: B3: 54.79% (0.7 μM); U251: B4: 10.95% (0.7 μM) | 2: U251: B1: 3.00% (3.3 μM); U251: B2: 29.85% (3.3 μM); U251: B3: 56.75% (3.3 μM); U251: B4: 10.40% (3.3 μM) DOUBTS OF THE COPYIST ABOUT THIS PICTURE: 1, B3: 54.79% is partly covered by plot points, digits not certain / 2, B3: 56.75% is partly covered by plot points, digits not certain / The CON (untreated control) plot prints B1 0.28%, B2 2.17%, B3 96.14% (partly covered by plot points, 96.14 or 96.44), B4 1.41%; left out of lines because it is not a substance

glioma U251 cells [4] = assay: SRB assay, proliferation of glioma U251 cells; format: cell-based; conditions: Homo sapiens, U-251, 72 h, read-out: IC50 inhibiting the proliferation of cells, U251
Method: as §3, §4, §5

[5] = system: glioma C6, U251, U87-MG, and SHG-44 cells; assay: SRB assay, four glioma cell lines (summary ranges); format: cell-based; conditions: 72 h, read-out: IC50 range over four tested glioma cell lines
Method: as §3
The SRB assay was used to evaluate the activity of the isolated compounds in inhibiting the proliferation of glioma U87-MG, U251, SHG-44, and C6 cells. Doxorubicin (DOX) was used as the positive control. Briefly, glioma cells were plated in a 96-well plate and then treated with different concentrations of tested compound after cells adhesion for 24 h. After 72 h of the treatment, cells were fixed with 50 μL of a 10% cold TCA solution for 1 h at 4 °C, washed with distilled water five times, and then dried at room temperature. The dried cells were stained with 50 μL of 0.4% SRB for ten minutes and rinsed with a 1% acetic acid solution five times. After dried, dye was dissolved in a 10 mM Tris buffer and measured at 515 nm on a microplate reader (BioTech, Winooski, VT, USA).

[6] = system: normal human astrocytes (HA); assay: Activity against normal human astrocytes (HA); format: cell-based; conditions: Homo sapiens, Astrocyte; HA cells, second assay in higher concentrations
Method: as §3, §4

[7] = Activity against normal human astrocytes (HA); format: cell-based; conditions: human, normal human astrocytes (HA), initial assay, read-out: Cell viability of HA cells
Method: as §3, §4

glioma U87-MG cells = assay: SRB assay, proliferation of glioma U87-MG cells; format: cell-based; conditions: Homo sapiens, U-87 MG, 72 h, read-out: IC50 inhibiting the proliferation of cells, U87-MG
Method: as §3, §4, §5

MIC [1] [µM]	IC50 (glioma C6 cells) [µM]	MIC, growth of E. coli [2]	IC50 (glioma SHG-44 cells) [µM]	IC50 (glioma U251 cells [4]) [µM]	IC50 [5] [µM]	IC50 (glioma U87-MG cells) [µM]	MIC ([2]; Escherichia coli, ATCC25922, read-out: MIC, growth of E. coli) [µM]	Structure (SMILES)	Increase of total apoptotic cells (early and late) compared to the control (glioma U251 cells [3]; U251, 0.7 μM) [%]	IC50 [6] [µM]	viability ([7]; each tested concentration from 0.35 to 7.0 μM) [%]	Increase of total apoptotic cells (early and late) compared to the control (glioma U251 cells [3]; U251, 3.3 μM) [%]	viability ([7]; each tested concentration from 1.65 to 16.5 μM) [%]
20 (≈ 9.83 µg/mL)	0.5 ± 0.1	no activity	3.9 ± 0.4	0.7 ± 0.2	0.5 to 3.9	1.4 ± 0.1	–	CC(=O)NC1CC(c2c(O)c3c(c4c(O)cc(C)cc24)C(=O)c2cccc(O)c2C3=O)OC(C)C1O (centres unmarked) [Compound 1, N-acetyl-N-demethylmayamycin]	38.76	25 ± 1.3	100	–	–
–	7.3 ± 1.4	no activity	6.5 ± 1.1	3.3 ± 0.3	3.3 to 7.3	4.6 ± 0.3	–	CC(=O)OC1c2c3c(c(O)c4c2C(Cc2c(O)cc(C)cc2-4)OC1C)C(=O)c1cccc(O)c1C3=O (centres unmarked) [Compound 2, streptoanthraquinone A]	–	> 100	–	36.67	100
–	1 ± 0.1	–	9 ± 0.8	6.7 ± 1.1	0.9 to 9	0.9 ± 0.1	–	COc1cccc2c1C(=O)c1c(O)c3c(c(O)c1C2=O)C[C@@](O)(C(=O)CO)C[C@@H]3O[C@H]1C[C@H](N)[C@H](O)[C@H](C)O1 [Doxorubicin (DOX), Doxorubicin, reference compound]	–	–	–	–	–
62.6 (≈ 20 µg/mL)	–	–	–	–	–	–	31.3 (≈ 10 µg/mL)	CCn1cc(C(=O)O)c(=O)c2cc(F)c(N3CCNCC3)cc21 [norfloxacin, reference compound]	–	–	–	–	–

— PMC4728507, “Bioactive Polycyclic Quinones from Marine Streptomyces sp. 182SMLY” (Marine Drugs, 2016)
